# Experimental data: US20040248871A1, “Use of lysyl oxidase inhibitors for cell culture and tissue engineering” (priority 2001, published 2004)
# Several values for one entry are separate records, joined by “and”; a condition that tells them apart may be missing. Equal values may be shown once.
# Key:
# [1] = system: standard purified aortic LO; assay: Lysyl oxidase activity assay with tritiated elastin substrate on standard purified aortic LO; assay type: biochemical; conditions: Experiment 2, substrate no. 2, standard purified aortic LO
# Protocol: (§1) The Lysyl oxidase activity was assayed with 300,000 dpm of labelled elastin on the Lysine, substrate of the enzyme (Shackelton and Hulmes Anal. Biochem. (1990) 185: 359-362). The determination of the presence of Lysyl oxidases in the cultures of chondrocytes is carried out according to the standard methods of immunodecoration of the supports onto which the bands separated from the proteins extracted from the corresponding culture media or from the cell lawns have been transferred.
# fibroblasts = assay: Fibroblasts cultured in monolayer: cell count and MTT viability test; assay type: cell-based, human
# Description: The support of the reconstructed skin model is constituted by a dermal substrate (DS) with a base of collagen-glycosaminoglycan cross-linked by chitosan according to the technique published by Duplan-Perrat et al (J Invest Dermatol 2000 114:365). Fibroblasts are inoculated the inside of the DS in order to obtain an equivalent dermis. The reconstituted skin (RS) is obtained by inoculating the keratinocytes after 15 days (day 15) of culture in equivalent dermis. The dermal fibroblasts are obtained from explants of human prepuces after dermal-epidermal separation and cultured in monolayer in DMEM medium (Sigma) supplemented by 10% fœtal calf serum, 4 mM L-glutamine, EGF (Austral Biologic) at 10 ng/ml, penicillin at 100 UI/ml, gentamicin at 100 μg/ml and amphotericin B at 1 μg/ml. The keratinocytes are from a human skin biopsy sample after dermal-epidermal separation by trypsination. The cells are inoculated nutritive layers (irradiated fibroblasts) and cultured in DMEM and HAM F12 at 30% supplemented with fœetal calf serum at 10%, EGF at 10 ng/ml, hydrocortisone at 1.6 ng/ml, umulin at 0.12 UI/ml, choleratoxin at 0.1 nM, triiodothyronine at 0.2 μM, adenine at 24 μg/ml, 4 mM L-Glutamine, penicillin at 100 UI/ml, gentamicin at 100 μg/ml and amphotericin B at 1 μg/ml.
# In fact, the number of these cells is reduced by approximately 50% compared to the control when they are cultured in the presence of 600 μg/ml of βAPN. […] The results of the MTT viability test confirm those of the cell count. […] It must be emphasized that βAPN at 200 μg/ml can optionally cause an increase in cell activity (proliferation and viability) on the fibroblasts inoculated at a low density, and on the fibroblasts and the keratinocytes inoculated at a high density.
# [2] = system: LOX, LOXL1 expression by chondrocytes; assay: Immunodecoration with anti LOX, LOXL1 antibodies of extracts of chondrocyte cell lawns and culture medium; assay type: cell-based, chicken; conditions: 6th or 14th day of culture
# Protocol: as §1
# The day before the samples are taken, the cell lawn is washed three times with medium without serum. The medium is then changed for 24 hours with complete medium without serum.
# On the 6th or 14th day of culture the media are sampled and precipitated in a standard fashion with TCA 10% final/4° C./[…]. The centrifugation pellets are rinsed with acetone then solubilized in a 50 μl electrophoresis buffer. The rinsed cell lawns are lysed 2 hours/4° C. (300 μl/P35) in the mixture 8M urea, 0.5% Nonidet, 16 mM disodium phosphate pH 8 and protease inhibitors. […]
# After separation by SDS PAGE and transfer by Western Blot, the protein bands are analyzed by immunodecoration using polyclonal anti-LOX and anti-LOXL1 antibodies from rabbits, then a second anti-rabbit antibody marked with alkaline phosphatase before development with the reagent NBT/BCIP (Roche Diagnostic GmBH, Mannheim, Germany).
# [3] = system: deep chondrocytes of the cotyloid ligament; assay: Human cotyloid cartilage chondrocytes in 2D culture on plastic; assay type: cell-based; conditions: hyaluronidase in extraction medium, two weeks, serum
# Description: b) The cultures of normal human chondrocytes originate from cartilages taken during hip prosthesis or ligamentoplasty surgery, then subjected to enzymatic digestion. These cartilage biopsies are considered as res nullus.
# The chondrocytes extracted from the cotyloid ligament have been used for the two-dimensional culture on plastic in the presence of BAPN: the cultures obtained after enzymatic digestion of the cartilages in the presence or absence of hyaluronidase were compared (FIGS. 4 and 5).
# The 24-hour radio-labellings with the 14C proline were carried out on the 2nd, 7th and 14th day of culture in the presence of serum and βAPN (day 2, day 7 and day 14 respectively). The pepsinated extracts of culture medium and cell lawn were subjected to electrophoresis then fluorography.
# The superficial areas (even numbers) and deep areas (odd numbers) of the cotyloid cartilage were separated before being subjected to enzymatic digestion in the presence or absence of hyaluronidase.
# [4] = system: normal human chondrocytes; assay: Normal human chondrocytes in 3D culture in collagen-GAG-chitosan sponge (immunofluorescence, histology); assay type: cell-based; conditions: 3D culture in sponge, three months
# Description: The chondrocytes obtained after ligamentoplasty have been used for the three-dimensional culture in collagen-GAG-chitosan sponge (Collombel et al. 1987)* in the presence or absence of BAPN (FIGS. 7 and 8). * Collombel C., Damour O., Gagneu C., Poinsignon F., Echinard C., Marichy J.: Peau artificielle et son procédé de fabrication. French Patent No. 87-08752 (15th Jun. 1987), European Patent No. 88-420194.8 (14th Jun. 1988).
# Nevertheless, human chondrocytes dedifferentiated in terms of the period of culture necessary for their multiplication in culture on plastic, can advantageously be placed in three-dimensional (3D) culture in the presence of βAPN. The placing in 3D culture not being sufficient, in itself, to ensure a return to the cartilage phenotype lost during the 2-dimensional culture in the presence of serum, as was described for 3D cultures in agarose.
# 3 D culture in sponges of collagen-GAG-chitosan in the presence of serum and βAPN of normal human chondrocytes. The chondrocytes were previously multiplied, and dedifferentiated, in 2D culture on plastic.
# Lysyl oxidase = Lysyl oxidase activity assay with tritiated elastin substrate on culture media of chicken embryo chondrocytes; assay type: biochemical
# Protocol: as §1
# Lysyl oxidase activities (inhibited by βAPN and assayed by the production of tritiated water) are secreted in the culture media. The specific activity recorded in the media is stronger on the 7th day of culture than on the 13th day. The extracellular matrix being richer in natural collagenic substrates of the Lysyl oxidase activity on the 13th day of culture, it would thus retain the enzyme in the cell lawn.
compound,measurement,setting,value
"N#CCCN [βAPN, β-aminopropionitrile]",dpm + βAPN (Lysyl oxidase activity assay),[1],4340 dpm and 4762 dpm
same,proliferation of the fibroblasts,fibroblasts; 200 μg/ml,slightly increased
same,effect on the viability and the multiplication,"fibroblasts; 200 μg/ml, isolated cultures",little effect
same,reduction of the number of cells compared to the control,fibroblasts; 600 μg/ml,approximately 50%
same,concentration with inhibiting effect on proliferation,fibroblasts; cell count and MTT,greater than 500 μg/ml
same,toxic effect on cells at confluence,fibroblasts; up to 800 μg/ml,no toxic effect
same,"expression of Lysyl oxidase molecules (LOX, LOXL1)",[2],does not modify the expression of Lysyl oxidase molecules
same,"preservation of morphology and phenotype (matrix of cartilaginous type, without collagen I)",[3],preserving their morphology and their phenotype
same,intensity of marking of the collagen I,[4],strong decrease
same,intensity of marking of the collagen II and of the aggrecan (cartilage markers),[4],clear increase
same,dpm + βAPN (Lysyl oxidase activity assay),"Lysyl oxidase; Experiment 1, substrate no. 1, culture − FCS, + cys, Day 3, caudal chondrocytes, 15% medium P35",674 dpm and 718 dpm
same,dpm + βAPN (Lysyl oxidase activity assay),"Lysyl oxidase; Experiment 2, substrate no. 2, culture + FCS, − cys, Day 7, caudal chondrocytes, 25% medium P35",5296 dpm and 6210 dpm
same,dpm + βAPN (Lysyl oxidase activity assay),"Lysyl oxidase; Experiment 2, substrate no. 2, culture + FCS, − cys, Day 7, cranial chondrocytes, 100% medium P35",5800 dpm and 6536 dpm
same,dpm + βAPN (Lysyl oxidase activity assay),"Lysyl oxidase; Experiment 2, substrate no. 2, culture + FCS, − cys, Day 13, caudal chondrocytes, 75% medium P35",4344 dpm and 4702 dpm
same,dpm + βAPN (Lysyl oxidase activity assay),"Lysyl oxidase; Experiment 2, substrate no. 2, culture + FCS, − cys, Day 13, cranial chondrocytes, 100% medium P35",4580 dpm and 4618 dpm
